Key:
Assay in all cases: Kinase panel activity
Type in all cases: biochemical
Settings in all cases: 0.1 μM, ATP Km
Aurora-A(h) = target: T1, Aurora-A(h) (Homo sapiens, UniProt O14965)
T1 construct: purchased Millipore (KinaseProfiler service)
Protocol: (§1) The effect of NTW-3475 on kinase activity was tested for a wide range of kinases and is shown in Table 2: Summary Sheet, Activity % ATP Concentration: Km

BTK(h) = BTK(h) (Homo sapiens, UniProt Q06187)
Protocol: as §1

CK1γ3(h) = CK1γ3(h) (Homo sapiens, UniProt Q9Y6M4)
Protocol: as §1

CK2(h) = CK2(h) (Homo sapiens, UniProt P68400)
Protocol: as §1

CSK(h) = CSK(h) (Homo sapiens, UniProt P41240)
Protocol: as §1

DRAK1(h) = target: T2, DRAK1(h) (Homo sapiens, UniProt Q9UEE5)
T2 construct: purchased Millipore (KinaseProfiler service)
Protocol: as §1

EphB4(h) = target: T3, EphB4(h) (Homo sapiens, UniProt P54760)
T3 construct: purchased Millipore (KinaseProfiler service)
Protocol: as §1

F1t3(D835Y)(h) = F1t3(D835Y)(h) (Homo sapiens, UniProt P36888, D835Y)
Protocol: as §1

FGFR3(h) = FGFR3(h) (Homo sapiens, UniProt P22607)
Protocol: as §1

GRK6(h) = GRK6(h) (Homo sapiens, UniProt P43250)
Protocol: as §1

HIPK2(h) = HIPK2(h) (Homo sapiens, UniProt Q9H2X6)
Protocol: as §1

IGF-1R(h), activated = IGF-1R(h), activated (Homo sapiens, UniProt P08069)
Protocol: as §1

JAK2(h) = JAK2(h) (Homo sapiens, UniProt O60674)
Protocol: as §1

Lyn(m) = Lyn(m) (Mus musculus, UniProt P25911)
Protocol: as §1

MAPK2(m) = MAPK2(m) (Mus musculus, UniProt P63085)
Protocol: as §1

MARK1(h) = target: T4, MARK1(h) (Homo sapiens, UniProt Q9P0L2)
T4 construct: purchased Millipore (KinaseProfiler service)
Protocol: as §1

MINK(h) = target: T5, MINK(h) (Homo sapiens, UniProt Q8N4C8)
T5 construct: purchased Millipore (KinaseProfiler service)
Protocol: as §1

MKK6(h) = target: T6, MKK6(h) (Homo sapiens, UniProt P52564)
T6 construct: purchased Millipore (KinaseProfiler service)
Protocol: as §1

MSK1(h) = target: T7, MSK1(h) (Homo sapiens, UniProt O75582)
T7 construct: purchased Millipore (KinaseProfiler service)
Protocol: as §1

MSSK1(h) = target: T8, MSSK1(h) (Homo sapiens, UniProt Q9UPE1)
T8 construct: purchased Millipore (KinaseProfiler service)
Protocol: as §1

MST3(h) = MST3(h) (Homo sapiens, UniProt Q9Y6E0)
Protocol: as §1

NEK7(h) = NEK7(h) (Homo sapiens, UniProt Q8TDX7)
Protocol: as §1

P1k1(h) = P1k1(h) (Homo sapiens, UniProt P53350)
Protocol: as §1

PAK4(h) = PAK4(h) (Homo sapiens, UniProt O96013)
Protocol: as §1

PKCβII(h) = PKCβII(h) (Homo sapiens, UniProt P05771)
Protocol: as §1

PKCθ(h) = PKCθ(h) (Homo sapiens, UniProt Q04759)
Protocol: as §1

PRAK(h) = PRAK(h) (Homo sapiens, UniProt Q8IW41)
Protocol: as §1

PRK2(h) = target: T9, PRK2(h) (Homo sapiens, UniProt Q16513)
T9 construct: purchased Millipore (KinaseProfiler service)
Protocol: as §1

Pim-3(h) = Pim-3(h) (Homo sapiens, UniProt Q86V86)
Protocol: as §1

ROCK-II(h) = target: T10, ROCK-II(h) (Homo sapiens, UniProt O75116)
T10 construct: purchased Millipore (KinaseProfiler service)
Protocol: as §1

Ret(V804M)(h) = target: T11, Ret(V804M)(h) (Homo sapiens, UniProt P07949, V804M)
T11 construct: purchased Millipore (KinaseProfiler service)
Protocol: as §1

Ron(h) = target: T12, Ron(h) (Homo sapiens, UniProt Q04912)
T12 construct: purchased Millipore (KinaseProfiler service)
Protocol: as §1

SRPK1(h) = target: T13, SRPK1(h) (Homo sapiens, UniProt Q96SB4)
T13 construct: purchased Millipore (KinaseProfiler service)
Protocol: as §1

TAO2(h) = target: T14, TAO2(h) (Homo sapiens, UniProt Q9UL54)
T14 construct: purchased Millipore (KinaseProfiler service)
Protocol: as §1

TBK1(h) = target: T15, TBK1(h) (Homo sapiens, UniProt Q9UHD2)
T15 construct: purchased Millipore (KinaseProfiler service)
Protocol: as §1

TSSK1(h) = target: T16, TSSK1(h) (Homo sapiens, UniProt Q9BXA7)
T16 construct: purchased Millipore (KinaseProfiler service)
Protocol: as §1

Tec(h) activated = target: T17, Tec(h) activated (Homo sapiens, UniProt P42680)
T17 construct: purchased Millipore (KinaseProfiler service)
Protocol: as §1

WNK3(h) = WNK3(h) (Homo sapiens, UniProt Q9BYP7)
Protocol: as §1

Yes(h) = Yes(h) (Homo sapiens, UniProt P07947)
Protocol: as §1

mTOR(h) = mTOR(h) (Homo sapiens, UniProt P42345)
Protocol: as §1

T13 sequence (Q96SB4 whole entry): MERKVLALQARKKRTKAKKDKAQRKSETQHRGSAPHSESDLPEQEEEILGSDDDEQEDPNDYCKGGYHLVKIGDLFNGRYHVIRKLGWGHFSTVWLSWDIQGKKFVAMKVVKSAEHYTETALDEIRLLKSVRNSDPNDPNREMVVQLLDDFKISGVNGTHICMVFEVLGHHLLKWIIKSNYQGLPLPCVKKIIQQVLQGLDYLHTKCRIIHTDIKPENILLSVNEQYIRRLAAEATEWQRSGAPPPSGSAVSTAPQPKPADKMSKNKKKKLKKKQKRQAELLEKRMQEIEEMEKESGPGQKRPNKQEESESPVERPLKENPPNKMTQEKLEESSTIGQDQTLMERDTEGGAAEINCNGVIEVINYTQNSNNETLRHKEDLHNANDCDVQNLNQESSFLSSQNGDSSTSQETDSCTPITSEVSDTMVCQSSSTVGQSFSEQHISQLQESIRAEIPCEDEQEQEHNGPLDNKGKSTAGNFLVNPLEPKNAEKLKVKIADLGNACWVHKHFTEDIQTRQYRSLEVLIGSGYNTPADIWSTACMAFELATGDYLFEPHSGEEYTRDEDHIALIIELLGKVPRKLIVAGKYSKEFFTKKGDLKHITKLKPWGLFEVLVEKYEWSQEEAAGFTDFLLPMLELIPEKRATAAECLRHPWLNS
T11 sequence (P07949 29-1114 V804M): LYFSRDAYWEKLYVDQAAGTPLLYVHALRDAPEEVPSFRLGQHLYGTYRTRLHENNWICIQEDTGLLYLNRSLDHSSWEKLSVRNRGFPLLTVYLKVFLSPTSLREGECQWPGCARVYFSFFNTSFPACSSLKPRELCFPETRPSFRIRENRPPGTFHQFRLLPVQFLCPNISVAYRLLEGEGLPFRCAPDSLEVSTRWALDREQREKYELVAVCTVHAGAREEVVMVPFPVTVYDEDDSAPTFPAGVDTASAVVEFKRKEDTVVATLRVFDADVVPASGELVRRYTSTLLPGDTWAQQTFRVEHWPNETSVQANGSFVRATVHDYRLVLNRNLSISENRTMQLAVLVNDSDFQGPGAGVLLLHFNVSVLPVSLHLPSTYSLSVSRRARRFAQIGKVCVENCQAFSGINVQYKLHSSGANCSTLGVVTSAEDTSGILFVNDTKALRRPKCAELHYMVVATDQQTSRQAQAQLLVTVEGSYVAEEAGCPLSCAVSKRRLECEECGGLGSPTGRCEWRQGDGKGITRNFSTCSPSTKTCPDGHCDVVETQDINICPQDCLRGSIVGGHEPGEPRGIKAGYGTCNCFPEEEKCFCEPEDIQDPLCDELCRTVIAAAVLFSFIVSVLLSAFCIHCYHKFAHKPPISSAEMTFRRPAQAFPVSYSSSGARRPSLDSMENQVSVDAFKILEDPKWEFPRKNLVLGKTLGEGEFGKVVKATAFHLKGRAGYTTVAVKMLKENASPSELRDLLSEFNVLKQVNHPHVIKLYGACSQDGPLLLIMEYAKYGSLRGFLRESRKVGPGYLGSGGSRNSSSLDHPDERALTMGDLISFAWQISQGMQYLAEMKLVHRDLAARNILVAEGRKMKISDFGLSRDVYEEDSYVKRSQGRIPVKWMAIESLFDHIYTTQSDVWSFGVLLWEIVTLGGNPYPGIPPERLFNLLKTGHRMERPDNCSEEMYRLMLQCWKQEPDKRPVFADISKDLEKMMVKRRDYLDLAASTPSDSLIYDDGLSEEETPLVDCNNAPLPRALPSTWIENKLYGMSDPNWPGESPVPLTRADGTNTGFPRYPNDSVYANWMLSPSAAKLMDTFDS
Chain of CK2(h) (P68400 whole entry): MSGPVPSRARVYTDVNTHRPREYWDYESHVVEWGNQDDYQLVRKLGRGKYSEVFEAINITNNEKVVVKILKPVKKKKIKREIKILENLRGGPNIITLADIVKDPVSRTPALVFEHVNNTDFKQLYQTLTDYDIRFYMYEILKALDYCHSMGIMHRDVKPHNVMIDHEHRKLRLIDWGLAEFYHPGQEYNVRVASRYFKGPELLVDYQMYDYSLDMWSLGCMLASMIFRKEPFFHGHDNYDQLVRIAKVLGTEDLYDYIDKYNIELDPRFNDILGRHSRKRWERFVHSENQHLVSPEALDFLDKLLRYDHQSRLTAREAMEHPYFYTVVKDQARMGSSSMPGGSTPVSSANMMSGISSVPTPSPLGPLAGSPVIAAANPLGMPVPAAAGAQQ
Chain of CK2(h) (P67870 whole entry partner): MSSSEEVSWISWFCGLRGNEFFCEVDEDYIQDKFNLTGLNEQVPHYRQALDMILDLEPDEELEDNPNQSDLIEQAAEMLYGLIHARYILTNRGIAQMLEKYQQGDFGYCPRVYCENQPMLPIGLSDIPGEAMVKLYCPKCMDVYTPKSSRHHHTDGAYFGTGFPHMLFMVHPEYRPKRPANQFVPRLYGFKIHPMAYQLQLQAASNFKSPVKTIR
Chain of Lyn(m) (P25911 whole entry): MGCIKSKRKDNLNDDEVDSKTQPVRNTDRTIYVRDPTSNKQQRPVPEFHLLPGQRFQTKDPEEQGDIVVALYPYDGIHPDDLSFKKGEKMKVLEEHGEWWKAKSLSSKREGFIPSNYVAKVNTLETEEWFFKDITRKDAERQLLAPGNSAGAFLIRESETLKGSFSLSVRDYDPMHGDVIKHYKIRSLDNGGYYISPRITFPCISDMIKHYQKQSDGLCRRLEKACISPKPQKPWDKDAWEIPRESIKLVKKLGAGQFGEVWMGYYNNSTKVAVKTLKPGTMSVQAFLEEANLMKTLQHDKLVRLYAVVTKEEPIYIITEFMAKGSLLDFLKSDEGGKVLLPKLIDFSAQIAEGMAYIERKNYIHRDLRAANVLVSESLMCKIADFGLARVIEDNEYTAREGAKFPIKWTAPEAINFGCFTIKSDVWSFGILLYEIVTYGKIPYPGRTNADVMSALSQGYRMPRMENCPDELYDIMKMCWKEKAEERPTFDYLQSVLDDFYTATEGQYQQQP
Chain of BTK(h) (Q06187 whole entry): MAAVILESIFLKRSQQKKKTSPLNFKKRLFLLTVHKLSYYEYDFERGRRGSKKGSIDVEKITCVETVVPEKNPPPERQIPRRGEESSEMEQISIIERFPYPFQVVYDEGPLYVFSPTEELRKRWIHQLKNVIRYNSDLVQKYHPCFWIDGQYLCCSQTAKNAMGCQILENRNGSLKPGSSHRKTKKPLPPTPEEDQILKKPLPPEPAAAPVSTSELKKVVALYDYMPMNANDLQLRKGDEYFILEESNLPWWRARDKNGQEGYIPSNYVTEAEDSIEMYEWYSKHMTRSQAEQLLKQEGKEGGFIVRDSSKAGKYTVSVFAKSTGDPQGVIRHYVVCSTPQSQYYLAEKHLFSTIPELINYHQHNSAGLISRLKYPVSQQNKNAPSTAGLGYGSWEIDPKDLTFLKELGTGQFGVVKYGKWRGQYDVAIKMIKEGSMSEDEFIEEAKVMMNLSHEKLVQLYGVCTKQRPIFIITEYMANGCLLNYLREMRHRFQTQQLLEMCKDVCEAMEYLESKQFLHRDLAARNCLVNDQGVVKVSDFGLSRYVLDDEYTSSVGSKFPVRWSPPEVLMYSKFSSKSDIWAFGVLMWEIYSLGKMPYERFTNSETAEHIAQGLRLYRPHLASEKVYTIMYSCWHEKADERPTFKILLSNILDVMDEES
Chain of MAPK2(m) (P63085 whole entry): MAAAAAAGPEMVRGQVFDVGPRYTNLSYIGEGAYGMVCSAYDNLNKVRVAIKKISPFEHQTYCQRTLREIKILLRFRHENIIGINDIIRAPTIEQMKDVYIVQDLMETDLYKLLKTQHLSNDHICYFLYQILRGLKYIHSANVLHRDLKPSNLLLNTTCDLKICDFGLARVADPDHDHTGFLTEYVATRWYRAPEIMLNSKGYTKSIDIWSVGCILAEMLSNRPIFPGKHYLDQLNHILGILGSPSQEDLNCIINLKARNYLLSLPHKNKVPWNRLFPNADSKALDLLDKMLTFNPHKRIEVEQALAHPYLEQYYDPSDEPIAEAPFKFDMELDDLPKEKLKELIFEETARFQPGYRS
Chain of CK1γ3(h) (Q9Y6M4 whole entry): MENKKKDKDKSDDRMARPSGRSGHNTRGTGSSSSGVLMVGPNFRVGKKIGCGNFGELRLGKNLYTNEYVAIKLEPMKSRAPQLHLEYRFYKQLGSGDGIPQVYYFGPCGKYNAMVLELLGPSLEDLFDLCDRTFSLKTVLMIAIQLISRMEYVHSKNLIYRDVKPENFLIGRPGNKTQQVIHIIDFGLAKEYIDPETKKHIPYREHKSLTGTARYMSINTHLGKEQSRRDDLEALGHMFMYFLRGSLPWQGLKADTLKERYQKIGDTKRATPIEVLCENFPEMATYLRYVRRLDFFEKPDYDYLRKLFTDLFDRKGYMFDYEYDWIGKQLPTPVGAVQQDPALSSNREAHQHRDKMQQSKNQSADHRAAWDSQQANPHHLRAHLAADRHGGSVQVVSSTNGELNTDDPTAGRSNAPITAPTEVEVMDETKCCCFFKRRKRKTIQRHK
Chain of NEK7(h) (Q8TDX7 whole entry): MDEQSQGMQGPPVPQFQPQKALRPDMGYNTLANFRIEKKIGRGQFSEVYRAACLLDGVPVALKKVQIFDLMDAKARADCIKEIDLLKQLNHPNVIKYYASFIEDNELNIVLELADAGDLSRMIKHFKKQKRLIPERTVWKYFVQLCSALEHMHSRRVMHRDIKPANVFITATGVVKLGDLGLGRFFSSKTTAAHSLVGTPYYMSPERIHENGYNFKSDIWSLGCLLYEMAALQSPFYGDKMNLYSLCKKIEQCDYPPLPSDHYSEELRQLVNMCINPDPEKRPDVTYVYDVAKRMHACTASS

## Cc1cc2c(F)c(Oc3nc(Nc4cc(C5CC5)[nH]n4)cc(N4CCN(C)CC4)n3)cc(F)c2[nH]1 [NTW-3475]
Aurora-A(h)
  Activity %: 7%
BTK(h)
  Activity %: 37%
CK1γ3(h)
  Activity %: 117%
CK2(h)
  Activity %: 85%
CSK(h)
  Activity %: 75%
DRAK1(h)
  Activity %: 51%
EphB4(h)
  Activity %: 14%
F1t3(D835Y)(h)
  Activity %: 0%
FGFR3(h)
  Activity %: 0%
GRK6(h)
  Activity %: 69%
HIPK2(h)
  Activity %: 101%
IGF-1R(h), activated
  Activity %: 18%
JAK2(h)
  Activity %: 8%
Lyn(m)
  Activity %: 1%
MAPK2(m)
  Activity %: 101%
MARK1(h)
  Activity %: 28%
MINK(h)
  Activity %: 75%
MKK6(h)
  Activity %: 113%
MSK1(h)
  Activity %: 104%
MSSK1(h)
  Activity %: 110%
MST3(h)
  Activity %: 9%
NEK7(h)
  Activity %: 98%
P1k1(h)
  Activity %: 107%
PAK4(h)
  Activity %: 70%
PKCβII(h)
  Activity %: 109%
PKCθ(h)
  Activity %: 109%
PRAK(h)
  Activity %: 100%
PRK2(h)
  Activity %: 30%
Pim-3(h)
  Activity %: 99%
ROCK-II(h)
  Activity %: 58%
Ret(V804M)(h)
  Activity %: 0%
Ron(h)
  Activity %: 34%
SRPK1(h)
  Activity %: 96%
TAO2(h)
  Activity %: 6%
TBK1(h)
  Activity %: 28%
TSSK1(h)
  Activity %: 86%
Tec(h) activated
  Activity %: 52%
WNK3(h)
  Activity %: 86%
Yes(h)
  Activity %: 0%
mTOR(h)
  Activity %: 115%

— US9458137B2, “Substituted indol-5-ol derivatives and their therapeutical applications” (NantBioScience, Inc., priority 2012, dated 2016)
